According to article PMC10667816, “A Cell‐Penetrant Peptide Disrupting the Transcription Factor CP2c Complexes Induces Cancer‐Specific Synthetic Lethality” (Advanced Science, 2023):
*1 amine or outer side, *2 acyl side, *3 side chain or, on linkers, in order; H or OH if unused. Where a SMILES comes first, the peptide text is derived from it. Side-chain parts run from the residue outwards. The star is where a group is joined. γGlu = O=C(O)[C@H](CCC(=O)[*:2])N[*:1]; Palmitoyl = CCCCCCCCCCCCCCCC(=O)*

Key:
[1] = In vivo pharmacokinetics test; conditions: plasma; male CD‐1 (ICR) mouse, single intravenous 5 mg kg^−1, sampled 0.033–48 h, peripheral blood, noncompartmental analysis (Phoenix WinNonlin 6.3)
Experimental: A pharmacokinetics study was conducted at WuXiAppTec., Ltd. In this study, male CD‐1 (ICR) mouse was given a single intravenous injection of 5 mg kg^−1 of ACP52CGK. Blood samples were collected prior to dosing on day 0 and at various time points, including 0.033, 0.083, 0.25, 0.5, 1, 2, 6, 12, 24, and 48 h after dosing. The data collected from these samples were used to calculate pharmacokinetic parameters using the IV‐noncompartmental analysis model 201 in Phoenix WinNonlin version 6.3.
Figure S23. Pharmacokinetics analysis of ACP52CGK
A) PK parameters of ACP52CGK in CD-1(ICR) mice, calculated using the noncompartmental analysis
model 201 of Phoenix WinNonlin version 6.3. B) Mean plasma concentration of ACP52CGK at 0.033,

[2] = system: α‐globin mRNA expression in iMEL cells; assay: Transcription inhibition of α‐globin mRNA expression; type: cell-based, murine; conditions: α‐globin (Hba-a2) mRNA, 36 h after ACP52C treatment, two independent biological replicates, read-out: TI50 (the source's name)
Experimental: To quantify mRNA expression of the gene of interest, cells were harvested, and total cellular RNA was extracted using Qiazol reagent (Qiagen, 79306). Purified RNA was dissolved in Diethyl pyrocarbonate (DEPC) water. Reverse transcription was performed using a High‐Capacity cDNA reverse transcription kit (Toyobo, FSQ‐201) in the presence of 400 ng of total RNA and 10 pmol random hexamer. PCR was performed using rTaq Plus 5X PCR master mix (Elpis‐Biotech, EBT‐1319) and the SYBR green Master Mix Kit. Amplifications were performed using a Light cycler 1.5 real‐time PCR system.^[ [43] ^] The relative mRNA expression levels were determined using the 2(−ΔCt) method, with GAPDH transcript levels serving as an internal control. Errors were calculated from at least two independent experiments. Oligonucleotide primers used in RT–qPCR are listed in Table S2 (Supporting Information).
Figure S13. The relationship between ACP52C-mediated growth inhibition and transcriptional
cell differentiation in vitro.
at 36 h after ACP52C treatment of various doses.
biological replicates. […] C)
expression in uMEL and iMEL c ells. D-G) Anticancer activity of ACP52C correlates with cellular
Modulation of GI50 values in cancer cells by
ACP52C treatment. […] Duplicated data
are expressed as means ± SD.

[3] = system: cisplatin‐resistant cancer cells; assay: Growth inhibition in cisplatin‐resistant cancer cells; type: cell-based, human; conditions: cisplatin‐resistant variants of Hep3B, HCT116, MDA‐MB‐231
Experimental: Information of the cell lines is listed in Table S1 (Supporting Information), including their origin and culture conditions. All cell lines were cultured at 37 °C, 5% CO2 incubator. MDA‐MB‐231 (LM1), HepG2, Hep3B, and HCT116 cell lines were authenticated with short tandem repeat markers based on ATCC information. All cell lines tested negative for mycoplasma contamination. Transient downregulation of the gene of interest was conducted by siRNA transfection using Lipofectamine 2000 (Thermo Fisher, 11668019) according to the manufacturer's instructions. Information about siRNAs is provided in Table S2 (Supporting Information). […] For erythroid terminal differentiation experiments, differentiation was assessed by hemoglobin staining using a 0.2% (w/v) tetramethylbenzidine solution (Sigma–Aldrich, T0440) in 0.6% hydrogen peroxide, 3% acetic acid for 10 min in dark condition. Benzidine‐positive or negative cell numbers were counted under the inverted microscope BX50 (Olympus) at 200 × magnification. […] After each synchronization, cells were fixed at 4‐h intervals for 24 h with ACP52C treatment, and the cell cycle was analyzed by Propidium Iodide (PI) staining or intracellular protein was analyzed by immunofluorescence. […] This development period was repeated four times for one round, after which GI50 concentrations were re‐assessed in each resistant cell line. […]

SMILES	half-life [1] [h]	IC50 [2] [µM]	anticancer activity in cisplatin‐resistant cells [3]
CCCCCCCCCCCCCCCC(=O)N[C@@H](CCC(=O)NCCCC[C@H](NC(=O)CNC(=O)CNC(=O)[C@@H]1CCCN1C(=O)[C@H](CCCNC(=N)N)NC(=O)[C@H](CCC(N)=O)NC(=O)[C@@H]1CCCN1C(=O)[C@H](Cc1ccc(O)cc1)NC(=O)[C@H](CC(N)=O)NC(C)=O)C(=O)NCC(=O)NCC(=O)N[C@@H](CS)C(=O)N[C@@H](CCCNC(=N)N)C(=O)NCC(=O)N[C@@H](CC(=O)O)C(=O)N[C@@H](CCCCN)C(=O)NCC(=O)N1CCC[C@H]1C(=O)N[C@@H](CC(=O)O)C(=O)N[C@@H](CS)C(N)=O)C(=O)O [ACP52CGK] (Ac-NYPQRPGGK([γGlu-Palmitoyl])GGCRGDKGPDC-NH2)	~5.26	–	–
CC(=O)N[C@@H](CC(N)=O)C(=O)N[C@@H](Cc1ccc(O)cc1)C(=O)N1CCC[C@H]1C(=O)N[C@@H](CCC(N)=O)C(=O)N[C@@H](CCCNC(=N)N)C(=O)N1CCC[C@H]1C(=O)N[C@@H](CS)C(=O)N[C@@H](CCCNC(=N)N)C(=O)NCC(=O)N[C@@H](CC(=O)O)C(=O)N[C@@H](CCCCN)C(=O)NCC(=O)N1CCC[C@H]1C(=O)N[C@@H](CC(=O)O)C(=O)N[C@@H](CS)C(N)=O [ACP52C] (Ac-NYPQRPCRGDKGPDC-NH2)	–	~15	effectiveness in targeting cisplatin‐resistant cancer cells
